Assay results taken from patent publication US20190119348A1, “PARATHYROID HORMONE RECEPTOR 1 ANTAGONIST AND INVERSE AGONIST POLYPEPTIDES AND METHODS OF THEIR USE” (The General Hospital Corporation, priority 2016, published 2019).
Where a SMILES comes first, the peptide text is derived from it. [ ]: non-standard residue; d: D form.

Target: T1, PTHR1 (Homo sapiens, UniProt Q03431)
T1 construct: expressed in transfected cells; host or cells: GP-2.3 (HEK-293 stably transfected with hPTHR1 and GloSensor)
T1 sequence (Q03431 27-593): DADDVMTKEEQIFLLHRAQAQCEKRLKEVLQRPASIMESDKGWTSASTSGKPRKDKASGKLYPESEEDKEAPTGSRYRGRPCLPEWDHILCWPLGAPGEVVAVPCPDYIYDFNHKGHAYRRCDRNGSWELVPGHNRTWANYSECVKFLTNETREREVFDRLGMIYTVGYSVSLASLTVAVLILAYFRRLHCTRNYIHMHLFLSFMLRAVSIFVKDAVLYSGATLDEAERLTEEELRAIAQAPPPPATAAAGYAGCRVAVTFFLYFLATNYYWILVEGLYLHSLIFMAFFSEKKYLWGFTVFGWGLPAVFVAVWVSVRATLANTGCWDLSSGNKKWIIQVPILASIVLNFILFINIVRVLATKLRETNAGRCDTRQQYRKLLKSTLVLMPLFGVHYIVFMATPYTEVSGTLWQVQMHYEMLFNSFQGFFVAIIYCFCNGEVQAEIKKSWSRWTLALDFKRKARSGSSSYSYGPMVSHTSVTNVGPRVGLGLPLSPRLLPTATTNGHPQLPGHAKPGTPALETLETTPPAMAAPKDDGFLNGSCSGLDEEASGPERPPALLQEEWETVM
Assay: Antagonism of PTH(1-34)-induced cAMP response (GloSensor) in GP-2.3 cells
Format: cell-based
Details: inhibition of PTH(1-34)-induced maximum response, read-out: corresponding nanomolar value of pIC50 (Table 4) (converted)
Protocol: cAMP signaling was assessed in the HEK293-derived or SaOS2-derived cell lines stably expressing the luciferase-based GloSensor™ cAMP reporter (Hattersley et al., Paper presented at: Novel Signaling Mechanisms and Bone Cell Biology 2014; Binkowski et al., Methods in molecular biology. 756:263-271). HEK-293 cells were further transfected to stably express the hPTHR1, hPTHR1-H223R, or hPTHR1-T410P. The cells were seeded into 96-well white plates and were assayed 24 to 48 hours post-confluency. Assays were performed at room temperature in CO2-independent culture media (Life Technologies, Corp., Carlsbad, Calif.) containing 0.1% BSA (CIDB). The cells were pre-loaded with luciferin (0.5 mM in CIDB) for 15 minutes, then PTH peptides were added at varying concentrations. cAMP-dependent luminescence was measured at two-minute intervals using a PerkinElmer Envision plate reader. The time at which maximum luminescence (cps) observed with agonist alone, typically at 10-20 minutes after agonist addition, was used to obtain data from wells containing antagonist with or without agonist, to thus generate antagonist ligand dose-response curves. The resulting cps values were then plotted against ligand concentration using GraphPad Prism 7.0 software and a four-parameter logistics curve fitting equation, which yielded parameters of inhibitory potency (pIC50).
Pharmacological properties of the ligands were assessed in cells expressing the PTHR1 and the GloSensor™ cAMP reporter. The assays used GP-2.3 cells, derived from HEK293 cells by stable transfection with the hPTHR1 and GloSensor™, as well as SGS-72 cells, which are derived from the human osteosarcoma cell line, Saos-2, in which is endogenously expressed the hPTHR1, by stable transfection with GloSensor™. Binding of representative polypeptides to the PTHR1 was assessed in GP-2.3 cells by radioligand competition methods (FIGS. 1A and 1B, Table 3).
[…] concentration of antagonist that inhibited the maximum response to PTH(1-34)-induced in the absence of antagonist (at ˜40 minutes) is reported in units of -log M (pIC50), and the corresponding nanomolar value is shown below each pIC50 value. Data are means of the number of experiments indicated (n). The PTH(1-34)-induced maximum luminescence was ˜80,000 cps and the basal was ˜1,000 cps. TMR indicates Lys13 modified at epsilon amino function with TMR, P vs. inhibition by dW12,Y34-bPTH(7-34).

CC[C@H](C)[C@H](N)C(=O)N[C@@H](CCC(N)=O)C(=O)N[C@@H](CC(C)C)C(=O)N[C@@H](CCSC)C(=O)N[C@@H](Cc1c[nH]cn1)C(=O)N[C@@H](CCC(N)=O)C(=O)N[C@@H](CCCNC(=N)N)C(=O)N[C@H](Cc1c[nH]c2ccccc12)C(=O)N[C@@H](CCCCN)C(=O)N[C@@H](Cc1c[nH]c2ccccc12)C(=O)N[C@H](C(=O)N[C@@H](CCC(N)=O)C(=O)N[C@@H](CC(=O)O)C(=O)N[C@@H](C)C(=O)N[C@@H](CCCNC(=N)N)C(=O)N[C@@H](CCCNC(=N)N)C(=O)N[C@@H](CCCNC(=N)N)C(=O)N[C@@H](C)C(=O)N[C@@H](Cc1c[nH]c2ccccc12)C(=O)N[C@@H](CC(C)C)C(=O)N[C@@H](Cc1c[nH]cn1)C(=O)N[C@@H](CCCCN)C(=O)N[C@@H](CC(C)C)C(=O)N[C@H](C(=O)N[C@@H](C)C(=O)N[C@@H](CCC(=O)O)C(=O)N[C@H](C(=O)N[C@@H](Cc1c[nH]cn1)C(=O)N[C@H](C(=O)N[C@@H](C)C(=O)N[C@@H](CCC(=O)O)C(=O)N[C@H](C(N)=O)[C@@H](C)CC)[C@@H](C)O)[C@@H](C)CC)[C@@H](C)CC)[C@@H](C)CC [compound 1949, dW12, W23-LA-PTH(5-36)] (H-IQLMHQR[dW]KWIQDARRRAWLHKLIAEIHTAEI-NH2; N-terminus assumed)
IC50: 101 nM
